These results are taken from paper PMC8625065 (Molecules, 2021).

Where a name gives a salt, the structure may show the parent alone. Where only a bound is given, the exact number is not on record here.

Data set [1] has as its system A549 (lung adenocarcinoma). Kind of data set: MTT proliferation assay, 72 h. Type of data set: cell-based. Conditions: Homo sapiens, A549 cells. The method, then: (§1) The cell lines HeLa (cervical carcinoma), SW620 (colorectal adenocarcinoma, metastatic), A549 (lung adenocarcinoma), HepG2 (hepatocellular carcinoma) and HFF (human foreskin fibroblasts) were cultured as monolayers and maintained in Dulbecco’s modified Eagle medium (DMEM), supplemented with 10% fetal bovine serum (FBS), 2mM L-glutamine, 100 U/mL penicillin and 100 μg/mL streptomycin in a humidified atmosphere with 5% CO2 at 37 °C.
(§2) Cells were seeded onto 96-well microtiter plates at a seeding density of 3000 cells/well for carcinoma cell lines, and 5000 cells/well for normal human fibroblasts. The next day, cells were treated with test agents at five different concentrations (0.01–100 µM) and further incubated for 72 h. […] Following 72 h incubation, the MTT assay was performed and measured absorbances were transformed into percentage of cell growth as described previously. Results were obtained from three independent experiments.

The test system of data set [2] is HepG2 (hepatocellular carcinoma). The data set is described as follows: MTT proliferation assay, 72 h. Type of data set: cell-based, human. Conditions: Homo sapiens; HepG2 cells, MTT, 72 h. The procedure:
as §1, §2
Background: Tetrazolium assays rely on reduction of a dye to a coloured formazan, in cell work by metabolically active cells.

In data set [3] the test system is SW620 (colorectal adenocarcinoma, metastatic). Kind of data set: MTT proliferation assay, 72 h. Type of data set: cell-based, human. The settings on record: Homo sapiens, SW-620; SW620 cells, MTT, 72 h. The method, then:
as §1, §2

For data set [4], the system named is HeLa (cervical carcinoma). The data set is described as follows: MTT proliferation assay, 72 h. Type of data set: cell-based, human. The settings on record: Homo sapiens; HeLa cells, MTT, 72 h. The procedure: as §1, §2
Data set [5] deals with HFF (human foreskin fibroblasts). The data set is described as follows: MTT proliferation assay, 72 h, non-tumor cells. Type of data set: cell-based. The arrangement: selectivity index (SI): reference not given here. The method, then:
as §1, §2

What is called melting point is the temperature, or range, at which the solid turns liquid. Regarding `c1cc(C2=NCCN2)c2ccn(Cc3cn(-c4ccc(C5=NCCN5)cc4)nn3)c2c1` (as salt: hydrochloride) [Compound 6, 1-((1-(4-(Dihydro-1H-imidazol-2-yl)phenyl)-1H-1,2,3-triazol-4-yl)methyl)-4-(dihydro-1H-imidazol-2-yl)-1H-indole dihydrochloride], the melting point was > 250 °C.
With `c1cc(-n2cc(Cn3ccc4cc(C5=NCCN5)ccc43)nn2)ccc1C1=NCCN1` (as salt: hydrochloride) [Compound 7, 1-((1-(4-(Dihydro-1H-imidazol-2-yl)phenyl)-1H-1,2,3-triazol-4-yl)methyl)-5-(dihydro-1H-imidazol-2-yl)-1H-indole dihydrochloride], the melting point lay in the range of 228 to 231 °C.
As usually defined, the IC50 is the concentration needed to halve the response being measured. Turning to `Cl.Cl.c1cc(C2=NCCN2)ccc1NCc1cn(-c2ccc(C3=NCCN3)cc2)nn1` [Compound 4, 1-(4-(4,5-Dihydro-1H-imidazol-2-yl)-phenyl)-4-((4-(4,5-dihydro-1H-imidazol-2-yl)phenyl)aminomethyl)-1H-1,2,3-triazole dihydrochloride], the melting point was > 250 °C. The molecule also registered an IC50 in data set [1] of 46.7 µM. The IC50 in data set [2] stood at 48.9 µM. In data set [3], this molecule registered an IC50 of 61.9 µM. The IC50 in data set [4] came out at 41.2 µM. For the same molecule, the “selectivity index (SI)” value in data set [5] (normal HFF fibroblasts versus tumor cells) was determined as 2.
As for `O=c1[nH]cc(F)c(=O)[nH]1` [Compound 5-FU, 5-Fluorouracil, reference compound], the IC50 in data set [1] stood at 2.8 µM; in data set [3], 0.08 µM; in data set [4] it was 8.81 µM.
As for `c1cc(-n2cc(Cn3ccc4cc(C5=NCCN5)ccc43)nn2)ccc1C1=NCCN1` [Compound 7, 1-((1-(4-(Dihydro-1H-imidazol-2-yl)phenyl)-1H-1,2,3-triazol-4-yl)methyl)-5-(dihydro-1H-imidazol-2-yl)-1H-indole dihydrochloride], the 50% inhibitory concentration (IC50) is > 100 µM in data set [1], 69.1 µM in data set [2], 49.8 µM in data set [3] and > 100 µM in data set [4].
Molecule `N#Cc1ccc(NCc2cn(-c3ccc(/C(N)=N/O)cc3)nn2)cc1` [Compound 12, 4-(((1-(4-((Z)-N′-Hydroxycarbamimidoyl)phenyl)-1H-1,2,3-triazol-4-yl)methyl)amino)benzonitrile] showed a melting point of 222 to 225 °C. Besides, the IC50 in data set [1] is > 100 µM. Also, the half-inhibitory concentration (IC50) in data set [2] was > 100 µM. This molecule also displayed a half-inhibitory concentration (IC50) in data set [3] of 65.1 µM. In addition, the 50% inhibitory concentration (IC50) in data set [4] is > 100 µM.
Take `N/C(=N\O)c1ccc(OCc2cn(-c3ccc(/C(N)=N/O)cc3)nn2)cc1` [Compound 13, (Z)-N′-Hydroxy-4-(4-((4-((Z)-N′-hydroxycarbamimidoyl)phenoxy)methyl)-1H-1,2,3-triazol-1-yl)benzimidamide]: the melting point fell in the range of 218 to 221 °C. The IC50 in data set [1] is > 100 µM. Moreover, the concentration for half-maximal inhibition (IC50) in data set [2] is > 100 µM. The half-inhibitory concentration (IC50) in data set [3] was > 100 µM. Besides, the concentration for half-maximal inhibition (IC50) in data set [4] was > 100 µM.
With `N#Cc1cccc2c1ccn2Cc1cn(-c2ccc(/C(N)=N/O)cc2)nn1` [Compound 14, 1-((1-(4-((Z)-N′-Hydroxycarbamimidoyl)phenyl)-1H-1,2,3-triazol-4-yl)methyl)-4-cyanoindole], the half-maximal inhibitory concentration (IC50) in data set [1] is > 100 µM; in data set [2], > 100 µM; in data set [3], > 100 µM; in data set [4], 65.8 µM.
Molecule `N/C(=N\O)c1ccc(-n2cc(Cn3ccc4c(/C(N)=N/O)cccc43)nn2)cc1` [Compound 15, (Z)-N′-hydroxy-1-((1-(4-((Z)-N′-hydroxycarbamimidoyl)phenyl)-1H-1,2,3-triazol-4-yl)methyl)-1H-indole-4-carboximidamide] gave a melting point of 229 to 232 °C. Also, in data set [1], the concentration for half-maximal inhibition (IC50) is > 100 µM. The IC50 in data set [2] was > 100 µM. Moreover, the IC50 in data set [3] is > 100 µM. In data set [4], the IC50 was > 100 µM.
With `N#Cc1ccc2c(ccn2Cc2cn(-c3ccc(/C(N)=N/O)cc3)nn2)c1` [Compound 16, 1-((1-(4-((Z)-N′-Hydroxycarbamimidoyl)phenyl)-1H-1,2,3-triazol-4-yl)methyl)-5-cyanoindole], the IC50 in data set [1], in data set [2], in data set [3] and in data set [4] was > 100 µM throughout.
`N/C(=N\O)c1ccc(-n2cc(Cn3ccc4cc(/C(N)=N/O)ccc43)nn2)cc1` [Compound 17, (Z)-N′-hydroxy-1-((1-(4-((Z)-N′-hydroxycarbamimidoyl)phenyl)-1H-1,2,3-triazol-4-yl)methyl)-indole-5-carboximidamide] came in with a melting point of 232 to 234 °C. In data set [1], the IC50 was > 100 µM. Moreover, in data set [2], the IC50 is > 100 µM. Moreover, the IC50 in data set [3] was > 100 µM. In data set [4], this molecule had a half-maximal inhibitory concentration (IC50) of 60.7 µM.
With `N/C(=N\O)c1ccc(-n2cc(CNc3cccc4cccnc34)nn2)cc1` [Compound 18, 8-(((1-(4-((Z)-N′-Hydroxycarbamimidoyl)phenyl)-1H-1,2,3-triazol-4-yl)methyl)amino)quinoline], the IC50 in data set [1] is 6.52 µM; in data set [2], > 100 µM; in data set [4], 25.6 µM; in data set [5] (Homo sapiens, Fibroblast, non-tumor HFF fibroblasts, MTT, 72 h) it was 9.81 µM.
Take `N/C(=N\O)c1ccc(-n2cc(COc3cccc4cccnc34)nn2)cc1` [Compound 19, 8-((1-(4-((Z)-N′-Hydroxycarbamimidoyl)phenyl)-1H-1,2,3-triazol-4-yl)methoxy)quinoline]: the melting point is 230 to 232 °C. Besides, the IC50 in data set [1] came out at 76.7 µM. Also, the IC50 in data set [2] was > 100 µM. The molecule also displayed a concentration for half-maximal inhibition (IC50) in data set [3] of 72.7 µM. This molecule also gave an IC50 in data set [4] of 64.5 µM.
In turn, `N/C(=N\O)c1ccc(-n2cc(COc3cc(=O)oc4ccccc34)nn2)cc1` [Compound 21, 4-((1-(4-((Z)-N′-Hydroxycarbamimidoyl)phenyl)-1H-1,2,3-triazol-4-yl)methoxy)coumarin] yielded a melting point of 235 to 237 °C. Further, the IC50 in data set [1] was > 100 µM. Moreover, in data set [2], the half-maximal inhibitory concentration (IC50) was > 100 µM. Moreover, the 50% inhibitory concentration (IC50) in data set [3] was > 100 µM. Also, the IC50 in data set [4] was found to be 99.7 µM.
In turn, `N/C(=N\O)c1ccc(-n2cc(COc3ccc4ccc(=O)oc4c3)nn2)cc1` [Compound 22, 7-((1-(4-((Z)-N′-Hydroxycarbamimidoyl)phenyl)-1H-1,2,3-triazol-4-yl)methoxy)coumarin] showed a melting point of 232 to 235 °C. In addition, the half-maximal inhibitory concentration (IC50) in data set [1] was > 100 µM. Moreover, half-maximal inhibition in data set [2] (IC50) required 91.4 µM. In addition, the 50% inhibitory concentration (IC50) in data set [3] is > 100 µM. Besides, the IC50 in data set [4] is 87.4 µM.
